Measured values from ChEMBL document CHEMBL1201862, “PubChem BioAssay data set” (2004).
Active and inactive are the calls of the source.

Legend:
[1] = target: T1, RNA-binding protein pos-1 (Caenorhabditis elegans, UniProt G5EF15); test: disruptors of C. elegans POS-1 RNA interaction – biochemical, fluorescence polarization, dose response (AID 1964);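 further: purified POS-1 fused to maltose binding protein made in E. coli; potency of compounds blocking POS-1 binding to fluorescent RNA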
T1 sequence (G5EF15 whole entry): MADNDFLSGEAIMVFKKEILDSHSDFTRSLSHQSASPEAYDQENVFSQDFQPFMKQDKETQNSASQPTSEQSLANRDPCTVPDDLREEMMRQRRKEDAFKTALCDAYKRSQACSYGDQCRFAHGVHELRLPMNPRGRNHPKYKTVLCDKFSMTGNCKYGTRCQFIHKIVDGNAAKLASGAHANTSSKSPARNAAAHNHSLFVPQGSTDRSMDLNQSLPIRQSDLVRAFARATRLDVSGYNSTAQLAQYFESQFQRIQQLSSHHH

[2] = target: T2, Zinc finger protein mex-5 (Caenorhabditis elegans, UniProt Q9XUB2); test: potency of MEX-5 RNA-binding blockers – biochemical, C. elegans, fluorescence polarization, dose response (AID 1960)
T2 sequence (Q9XUB2 whole entry): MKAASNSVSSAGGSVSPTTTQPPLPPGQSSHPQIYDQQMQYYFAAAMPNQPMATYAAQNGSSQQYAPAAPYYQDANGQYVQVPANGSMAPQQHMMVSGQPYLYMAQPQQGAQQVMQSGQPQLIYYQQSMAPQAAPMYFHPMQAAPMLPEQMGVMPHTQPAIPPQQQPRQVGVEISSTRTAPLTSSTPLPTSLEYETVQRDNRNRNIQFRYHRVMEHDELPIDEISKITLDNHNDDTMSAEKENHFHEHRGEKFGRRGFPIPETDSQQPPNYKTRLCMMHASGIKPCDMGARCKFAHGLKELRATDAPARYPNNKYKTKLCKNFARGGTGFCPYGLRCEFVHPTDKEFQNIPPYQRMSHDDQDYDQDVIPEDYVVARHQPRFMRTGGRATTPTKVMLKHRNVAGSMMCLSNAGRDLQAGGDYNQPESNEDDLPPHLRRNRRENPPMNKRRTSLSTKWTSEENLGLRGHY

[3] = target: Induced myeloid leukemia cell differentiation protein Mcl-1 (Homo sapiens, UniProt Q07820); test: blockers of MCL1 binding to BIM peptide – biochemical, fluorescence polarization, BIM-BH3 peptide, 1536-well, dose response (AID 2217)
Induced myeloid leukemia cell differentiation protein Mcl-1, sequence (Q07820 whole entry): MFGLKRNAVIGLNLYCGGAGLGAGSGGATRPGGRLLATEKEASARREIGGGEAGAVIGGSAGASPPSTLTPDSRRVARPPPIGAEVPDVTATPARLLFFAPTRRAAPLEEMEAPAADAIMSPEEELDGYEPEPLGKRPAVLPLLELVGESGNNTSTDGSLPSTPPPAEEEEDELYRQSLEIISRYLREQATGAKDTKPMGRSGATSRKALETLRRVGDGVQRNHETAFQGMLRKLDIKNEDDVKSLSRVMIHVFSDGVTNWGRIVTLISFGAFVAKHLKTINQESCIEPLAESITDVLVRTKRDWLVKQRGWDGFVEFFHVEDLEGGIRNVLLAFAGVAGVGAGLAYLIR

[4] = target: Bcl-2-like protein 1 (Homo sapiens, UniProt Q07817); test: blockers of BCLXL peptide binding – biochemical, fluorescence polarization, 1536-well, selectivity assay for MCL1 inhibitor project, dose response (AID 2218)
Bcl-2-like protein 1, sequence (Q07817 whole entry): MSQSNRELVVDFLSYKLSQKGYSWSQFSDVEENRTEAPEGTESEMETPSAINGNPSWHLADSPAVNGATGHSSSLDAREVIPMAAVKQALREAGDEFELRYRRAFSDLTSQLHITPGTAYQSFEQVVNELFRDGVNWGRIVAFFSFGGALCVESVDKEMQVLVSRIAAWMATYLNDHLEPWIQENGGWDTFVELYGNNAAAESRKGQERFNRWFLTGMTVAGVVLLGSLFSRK

[5] = target: T3, Caspase-3 (Homo sapiens, UniProt P42574); test: activation of caspase-3 zymogen – biochemical, absorbance, dose response (AID 489014)
T3 sequence (P42574 whole entry): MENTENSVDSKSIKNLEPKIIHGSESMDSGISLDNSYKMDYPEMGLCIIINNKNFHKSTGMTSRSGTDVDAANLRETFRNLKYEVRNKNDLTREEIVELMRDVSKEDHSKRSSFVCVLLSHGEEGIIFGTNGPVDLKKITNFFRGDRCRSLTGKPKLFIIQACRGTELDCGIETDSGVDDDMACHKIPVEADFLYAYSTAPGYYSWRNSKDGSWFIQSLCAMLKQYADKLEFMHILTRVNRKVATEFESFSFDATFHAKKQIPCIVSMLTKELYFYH

[6] = Luminescence Cell-Based Dose Retest to Confirm Inhibitors of Cancer Stem Cells. [Related pubchem assays (depositor defined):AID2717, AID2721]; assay type: functional; conditions: Homo sapiens
[7] = target: Caspase-7 (Homo sapiens, UniProt P55210); test: activation of caspase-7 zymogen – biochemical, absorbance, counter-screen for procaspase-3 activator project, dose response (AID 489013)
[8] = target: T4, Heat shock factor protein 1 (Mus musculus, UniProt P38532); test: decrease of HSF1-responsive luciferase luminescence – cell-based, NIH3T3, dose retest, confirmation (AID 2382); assay type: functional;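 further: NIH3T3 fibroblasts with HSF1-driven luciferase reporter stressed by proteasome inhibitor MG132; luminescence from HSF1-driven luciferase expression after 8 hours of MG132 stress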
T4 sequence (P38532 whole entry): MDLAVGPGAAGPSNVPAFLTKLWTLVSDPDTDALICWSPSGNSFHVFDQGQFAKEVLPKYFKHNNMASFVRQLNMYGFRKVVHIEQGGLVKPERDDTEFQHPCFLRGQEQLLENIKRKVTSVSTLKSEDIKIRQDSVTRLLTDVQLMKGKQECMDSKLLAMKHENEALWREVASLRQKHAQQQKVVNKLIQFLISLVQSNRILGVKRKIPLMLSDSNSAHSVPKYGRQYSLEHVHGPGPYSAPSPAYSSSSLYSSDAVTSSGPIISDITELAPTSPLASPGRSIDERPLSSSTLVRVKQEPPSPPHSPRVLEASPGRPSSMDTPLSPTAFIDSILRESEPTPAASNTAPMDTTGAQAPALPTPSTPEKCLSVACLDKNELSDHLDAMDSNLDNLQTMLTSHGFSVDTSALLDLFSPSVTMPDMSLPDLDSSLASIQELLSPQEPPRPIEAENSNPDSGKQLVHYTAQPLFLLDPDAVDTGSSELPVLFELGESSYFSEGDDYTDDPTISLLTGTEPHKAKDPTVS

[9] = target: Luciferin 4-monooxygenase (Photinus pyralis, UniProt P08659); test: inhibition of purified Photinus pyralis luciferase – biochemical, luminescence, dose response (AID 1891)
Luciferin 4-monooxygenase, sequence (P08659 whole entry): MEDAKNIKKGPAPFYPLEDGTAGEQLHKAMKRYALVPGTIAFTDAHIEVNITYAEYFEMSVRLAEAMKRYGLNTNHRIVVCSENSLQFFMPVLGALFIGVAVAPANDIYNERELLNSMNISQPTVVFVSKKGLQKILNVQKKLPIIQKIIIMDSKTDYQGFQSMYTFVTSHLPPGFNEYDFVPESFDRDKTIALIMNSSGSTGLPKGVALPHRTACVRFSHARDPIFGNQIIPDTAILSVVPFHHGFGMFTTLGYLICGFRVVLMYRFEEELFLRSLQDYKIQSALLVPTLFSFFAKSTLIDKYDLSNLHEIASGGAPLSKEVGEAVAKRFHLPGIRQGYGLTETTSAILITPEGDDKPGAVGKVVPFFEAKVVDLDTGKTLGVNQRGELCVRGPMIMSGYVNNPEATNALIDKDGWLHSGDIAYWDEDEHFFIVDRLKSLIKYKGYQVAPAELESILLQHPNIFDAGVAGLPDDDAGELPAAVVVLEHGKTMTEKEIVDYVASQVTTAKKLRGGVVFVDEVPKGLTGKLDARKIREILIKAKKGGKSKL

[10] = Luminescence Cell-Based Dose Confirmation HTS to Identify Inhibitors of Platelet Dense Granule Release. [Related pubchem assays: 1663 (Primary HTS), 1678 (Summary of Project)]; assay type: functional
[11] = target: Intestinal-type alkaline phosphatase (Homo sapiens, UniProt P09923); test: activation of human intestinal alkaline phosphatase – biochemical, dose response (AID 488873); assay type: functional
Intestinal-type alkaline phosphatase (Homo sapiens, UniProt P09923), sequence (P09923 whole entry): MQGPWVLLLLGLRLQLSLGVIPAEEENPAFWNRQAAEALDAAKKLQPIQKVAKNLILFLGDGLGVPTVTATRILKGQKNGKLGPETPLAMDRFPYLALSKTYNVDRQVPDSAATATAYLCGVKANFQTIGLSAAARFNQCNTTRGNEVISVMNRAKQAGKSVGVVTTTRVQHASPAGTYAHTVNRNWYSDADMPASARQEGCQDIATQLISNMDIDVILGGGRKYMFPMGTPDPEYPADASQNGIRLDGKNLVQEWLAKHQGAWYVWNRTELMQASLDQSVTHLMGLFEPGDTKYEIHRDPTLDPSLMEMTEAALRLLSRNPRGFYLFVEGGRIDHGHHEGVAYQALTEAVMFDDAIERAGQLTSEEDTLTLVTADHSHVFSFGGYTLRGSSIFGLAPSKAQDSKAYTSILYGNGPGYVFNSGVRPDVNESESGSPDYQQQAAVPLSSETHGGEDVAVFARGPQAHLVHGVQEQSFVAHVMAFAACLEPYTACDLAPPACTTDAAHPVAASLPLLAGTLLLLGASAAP

[12] = target: Intestinal-type alkaline phosphatase (Mus musculus, UniProt P24822); test: PubChem AID 488785; assay type: functional
[13] = target: T5, Alkaline phosphatase, tissue-nonspecific isozyme (Homo sapiens, UniProt P05186); test: TNAP enzyme inhibition by screening hits, dose response, selectivity assay for mouse IAP inhibitor project, biochemical, human TNAP, uHTS hits (AID 488906); assay type: functional
T5 sequence (P05186 whole entry): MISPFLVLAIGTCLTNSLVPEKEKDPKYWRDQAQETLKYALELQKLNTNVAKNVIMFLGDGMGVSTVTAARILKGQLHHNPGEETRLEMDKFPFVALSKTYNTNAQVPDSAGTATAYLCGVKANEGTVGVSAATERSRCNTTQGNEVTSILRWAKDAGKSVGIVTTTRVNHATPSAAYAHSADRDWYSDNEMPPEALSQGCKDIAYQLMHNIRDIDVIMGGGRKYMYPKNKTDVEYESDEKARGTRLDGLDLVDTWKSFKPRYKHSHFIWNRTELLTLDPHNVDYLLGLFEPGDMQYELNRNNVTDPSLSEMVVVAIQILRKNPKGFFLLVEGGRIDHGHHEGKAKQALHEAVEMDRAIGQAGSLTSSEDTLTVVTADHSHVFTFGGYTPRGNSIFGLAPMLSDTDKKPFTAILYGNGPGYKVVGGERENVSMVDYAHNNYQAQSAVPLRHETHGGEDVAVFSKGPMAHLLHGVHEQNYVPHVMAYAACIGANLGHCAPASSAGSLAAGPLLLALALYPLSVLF

[14] = THP-1 cell cytotoxicity, dose response, cytotoxicity control for non-replicating M. tuberculosis project (AID 489025); assay type: functional
[15] = HepG2 cell cytotoxicity, dose response, cytotoxicity control for non-replicating M. tuberculosis project (AID 489018); assay type: functional; conditions: Mycobacterium tuberculosis
[16] = cells; assay type: functional
[17] = Luminescent dose response cell-based high throughput screening assay for inhibitors of the Janus kinase 2 mutant JAK2V617F. [Related pubchem assays: 1446 (Primary screen.), 1521 (Confirmation assay.), 1486 (Counter screen.)]; assay type: functional
[18] = tested on: Streptococcus sp. 'group A'; test: Streptococcus pyogenes SK(-)GAS viability under kanamycin – luminescence, BacTiterGlo, confirmation, counter-screen for streptokinase expression inhibitor project, dose response (AID 1900); assay type: functional, organism-based
[19] = target: T6, Voltage-gated N-type calcium channel alpha-1B subunit/Amyloid beta A4 precursor protein-binding family A member 1 (Homo sapiens, UniProt Q00975+Q02410); assay type: protein assay
T6 sequence (Q00975 whole entry): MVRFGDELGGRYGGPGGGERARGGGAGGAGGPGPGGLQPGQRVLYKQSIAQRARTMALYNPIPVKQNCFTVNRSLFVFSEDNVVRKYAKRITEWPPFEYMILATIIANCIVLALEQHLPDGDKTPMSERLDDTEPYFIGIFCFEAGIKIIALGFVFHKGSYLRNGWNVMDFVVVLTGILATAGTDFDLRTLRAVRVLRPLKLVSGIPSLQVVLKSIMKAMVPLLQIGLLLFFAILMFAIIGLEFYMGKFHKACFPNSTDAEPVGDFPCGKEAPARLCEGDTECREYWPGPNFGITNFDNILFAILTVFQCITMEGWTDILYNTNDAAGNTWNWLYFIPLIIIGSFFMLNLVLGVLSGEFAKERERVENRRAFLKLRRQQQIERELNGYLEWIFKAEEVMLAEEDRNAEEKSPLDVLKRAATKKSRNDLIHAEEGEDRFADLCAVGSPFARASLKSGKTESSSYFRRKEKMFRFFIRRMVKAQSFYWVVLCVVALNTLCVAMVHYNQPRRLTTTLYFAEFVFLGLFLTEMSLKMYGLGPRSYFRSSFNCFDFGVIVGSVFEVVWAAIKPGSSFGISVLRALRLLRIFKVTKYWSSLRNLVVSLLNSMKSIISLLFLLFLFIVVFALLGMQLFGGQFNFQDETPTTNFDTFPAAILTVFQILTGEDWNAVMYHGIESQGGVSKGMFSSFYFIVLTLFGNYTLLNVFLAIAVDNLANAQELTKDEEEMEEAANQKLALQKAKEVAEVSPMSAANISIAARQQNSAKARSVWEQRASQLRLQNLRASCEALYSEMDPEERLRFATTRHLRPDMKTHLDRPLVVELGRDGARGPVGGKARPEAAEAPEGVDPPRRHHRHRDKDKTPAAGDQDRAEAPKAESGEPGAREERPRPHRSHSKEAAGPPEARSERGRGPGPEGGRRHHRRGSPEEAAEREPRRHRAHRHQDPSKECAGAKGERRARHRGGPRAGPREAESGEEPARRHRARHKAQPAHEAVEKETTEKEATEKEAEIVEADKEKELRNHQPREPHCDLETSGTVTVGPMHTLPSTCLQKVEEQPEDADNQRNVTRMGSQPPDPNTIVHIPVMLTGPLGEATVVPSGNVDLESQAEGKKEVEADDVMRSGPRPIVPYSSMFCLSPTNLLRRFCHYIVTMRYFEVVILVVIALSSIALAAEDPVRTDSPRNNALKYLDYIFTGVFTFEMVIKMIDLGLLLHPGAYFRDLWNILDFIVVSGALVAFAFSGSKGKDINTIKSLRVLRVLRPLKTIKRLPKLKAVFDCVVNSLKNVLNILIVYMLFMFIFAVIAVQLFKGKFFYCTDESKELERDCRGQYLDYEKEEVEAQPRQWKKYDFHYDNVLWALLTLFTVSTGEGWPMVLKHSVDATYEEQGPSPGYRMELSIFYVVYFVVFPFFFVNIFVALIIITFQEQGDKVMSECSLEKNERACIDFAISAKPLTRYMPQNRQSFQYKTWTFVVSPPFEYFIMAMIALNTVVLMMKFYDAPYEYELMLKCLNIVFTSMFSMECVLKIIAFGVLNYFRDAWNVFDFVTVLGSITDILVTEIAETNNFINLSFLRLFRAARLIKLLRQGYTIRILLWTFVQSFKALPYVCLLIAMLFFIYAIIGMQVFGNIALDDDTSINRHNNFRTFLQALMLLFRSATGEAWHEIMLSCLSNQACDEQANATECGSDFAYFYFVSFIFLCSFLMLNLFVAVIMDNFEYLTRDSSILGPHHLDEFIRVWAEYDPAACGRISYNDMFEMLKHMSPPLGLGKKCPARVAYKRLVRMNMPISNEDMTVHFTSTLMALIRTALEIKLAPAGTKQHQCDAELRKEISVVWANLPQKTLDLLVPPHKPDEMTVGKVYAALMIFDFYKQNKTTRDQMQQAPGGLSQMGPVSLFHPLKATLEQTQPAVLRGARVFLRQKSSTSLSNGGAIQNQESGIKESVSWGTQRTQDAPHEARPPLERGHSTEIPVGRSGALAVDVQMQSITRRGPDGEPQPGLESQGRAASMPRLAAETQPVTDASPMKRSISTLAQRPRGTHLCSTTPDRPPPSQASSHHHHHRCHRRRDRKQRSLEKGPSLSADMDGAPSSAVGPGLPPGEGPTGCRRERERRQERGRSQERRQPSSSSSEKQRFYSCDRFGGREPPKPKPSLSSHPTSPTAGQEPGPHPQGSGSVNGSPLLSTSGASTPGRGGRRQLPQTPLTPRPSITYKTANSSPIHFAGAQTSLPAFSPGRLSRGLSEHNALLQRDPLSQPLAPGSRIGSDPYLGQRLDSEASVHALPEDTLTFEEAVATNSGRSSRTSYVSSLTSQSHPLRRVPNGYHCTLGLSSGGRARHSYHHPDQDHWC
T6 sequence (Q02410 whole entry): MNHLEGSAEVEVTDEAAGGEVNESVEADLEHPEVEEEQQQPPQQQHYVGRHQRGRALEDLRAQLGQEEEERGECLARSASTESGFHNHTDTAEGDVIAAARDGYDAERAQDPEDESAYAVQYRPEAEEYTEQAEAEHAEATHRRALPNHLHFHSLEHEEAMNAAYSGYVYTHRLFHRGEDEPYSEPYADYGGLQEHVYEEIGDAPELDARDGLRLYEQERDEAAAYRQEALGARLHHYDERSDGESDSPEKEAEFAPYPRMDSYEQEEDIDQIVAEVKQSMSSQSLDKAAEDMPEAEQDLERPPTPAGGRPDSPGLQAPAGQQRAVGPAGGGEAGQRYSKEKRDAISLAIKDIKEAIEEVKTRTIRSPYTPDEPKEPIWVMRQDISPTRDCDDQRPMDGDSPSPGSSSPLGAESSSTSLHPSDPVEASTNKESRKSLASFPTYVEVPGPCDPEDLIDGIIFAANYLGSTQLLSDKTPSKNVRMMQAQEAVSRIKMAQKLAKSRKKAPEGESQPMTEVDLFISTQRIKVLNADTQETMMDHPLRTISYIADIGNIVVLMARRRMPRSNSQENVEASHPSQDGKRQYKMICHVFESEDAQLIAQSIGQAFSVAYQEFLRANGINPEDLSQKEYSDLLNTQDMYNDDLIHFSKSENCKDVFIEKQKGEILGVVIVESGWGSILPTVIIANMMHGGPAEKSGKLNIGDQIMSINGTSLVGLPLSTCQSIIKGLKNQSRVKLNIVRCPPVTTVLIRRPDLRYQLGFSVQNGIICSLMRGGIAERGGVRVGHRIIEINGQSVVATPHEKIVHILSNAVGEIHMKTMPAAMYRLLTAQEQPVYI

[20] = target: T7, Streptokinase A (Streptococcus pyogenes serotype M1, UniProt P10520); test: viability-normalized secreted streptokinase activity reduction – plasminogen activation absorbance, OD405, dose response (AID 1914); assay type: functional, Streptococcus pyogenes M1 GAS;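 further: secreted streptokinase activity via plasminogen activation per viability signal from cell pellet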
T7 sequence (P10520 whole entry): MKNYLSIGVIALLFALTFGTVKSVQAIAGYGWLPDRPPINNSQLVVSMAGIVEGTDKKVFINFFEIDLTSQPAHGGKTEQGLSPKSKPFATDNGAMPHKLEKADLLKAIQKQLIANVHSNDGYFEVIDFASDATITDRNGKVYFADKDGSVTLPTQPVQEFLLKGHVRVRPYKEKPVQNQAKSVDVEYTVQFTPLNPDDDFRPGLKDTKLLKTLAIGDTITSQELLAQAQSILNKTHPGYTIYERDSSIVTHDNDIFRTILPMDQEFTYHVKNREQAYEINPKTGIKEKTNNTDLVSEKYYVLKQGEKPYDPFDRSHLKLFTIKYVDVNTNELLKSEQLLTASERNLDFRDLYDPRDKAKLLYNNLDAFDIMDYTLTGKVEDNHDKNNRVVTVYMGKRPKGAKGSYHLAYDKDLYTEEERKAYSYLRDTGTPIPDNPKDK

[21] = target: T6, Voltage-gated N-type calcium channel alpha-1B subunit/Amyloid beta A4 precursor protein-binding family A member 1; assay type: protein assay; remark: listed apart in the source
[22] = Trypanosoma cruzi growth suppression in host cells – NIH3T3 host cells, beta-gal luminescence, confirmation (AID 2044); assay type: functional, cell-based;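 further: intracellular parasites grown in NIH/3T3 mouse fibroblasts as host cells; luminescent beta-galactosidase reporter signal from transgenic T. cruzi replicating inside host cells; inhibitors lower the luminescence signal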
[23] = NIH3T3 cell viability loss – ATP luminescence, mouse fibroblasts, counter-screen, dose response (AID 2010); assay type: functional, cell-based;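 further: cells exposed to compound for about 90 hours before reading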
[24] = tested on: Streptococcus; test: GAS UMAA2166 growth inhibition – luminescence, BacTiterGlo, counter-screen for streptokinase expression inhibitor project, dose response (AID 1915); assay type: functional, organism-based;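 further: potency for reduction of bacterial viability or growth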
[25] = target: Glucose-6-phosphate 1-dehydrogenase (Homo sapiens, UniProt P11413); test: inhibition of Homo sapiens G6PD, dose series – biochemical, fluorescence, selectivity assay for P. falciparum G6PD inhibitor project, dose response (AID 504792); assay type: functional
[26] = target: Beta-galactosidase (Escherichia coli, UniProt Q8VNN2); test: detection-enzyme interference by beta-gal modulators – biochemical, E. coli enzyme, set 3, artefact control for CCR6 antagonist project, dose response (AID 504712); assay type: functional
[27] = tested on: CHO; test: CHO cell viability loss, potency – luminescence, cytotoxicity control for TLR9-MyD88 binding inhibitor project, dose response (AID 588339); assay type: functional, cell-based, hamster; conditions: Cricetulus griseus;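 further: CHO cells stably coexpressing TLR9 and MyD88 fusions from primary screen; compound exposure lasted 48 hours before viability readout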
[28] = target: Heat shock protein HSP 90-alpha (Homo sapiens, UniProt P07900); assay type: functional, organism-based
[29] = target: Melanocortin receptor 4 (Homo sapiens, UniProt P32245); test: inhibitors of MC4R cAMP signaling – cell-based, TR-FRET, biased antagonists, dose response (AID 602298); assay type: functional;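 further: antagonist potency against agonist-stimulated cAMP production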
[30] = reduction of Shn3 3'UTR-driven luciferase in osteoblasts – cell-based, Clone20 osteoblasts, firefly luciferase, cherry-picked, dose response (AID 624132); assay type: functional;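 further: firefly luciferase luminescence from reporter carrying the Shn3 3'UTR in osteoblasts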
[31] = loss of viability in HepG2 cells – cell-based, CellTiter-Glo, cherry-picked, cytotoxicity control for Shn3 inhibitor project, dose response (AID 624134); assay type: functional
[32] = non-specific 3'UTR reporter inhibition in Clone20-Shn3RL – cell-based, Renilla luciferase, cherry-picked, counter-screen for Shn3 inhibitor project, dose response (AID 624133); assay type: functional
[33] = cAMP pathway inhibition in counterscreen cell line – TR-FRET cAMP detection, counter-screen for MC4R biased antagonist project, dose response (AID 602305); assay type: functional, cell-based;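 further: U2OS cells stimulated with forskolin near its EC80 as the cAMP inducer; potency is for inhibition of forskolin-stimulated cAMP signaling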

COC(=O)c1ccccc1NCc1cc(=O)oc2cc(O)c(O)cc12
EC50 [1]: 19 µM (inconclusive)
EC50 [2]: 18.4 µM (inconclusive)
IC50 [3]: > 4.03 µM (active)
IC50 [4]: > 109 µM (not active)
EC50 [5]: > 1.05 µM (active)
AC50 [6]: 6.97 µM (active)
EC50 [7]: > 85.2 µM (inactive)

CN(C)c1ccc(N=Nc2nc3ccccc3n2C)cc1
EC50 [8]: 0.429 µM (inconclusive)
EC50 [9]: 0.213 µM (active)
EC50 [10]: 0.208 µM (active)
EC50 [11]: > 100 µM (inactive)
IC50 [12]: 27.6 µM (active)
IC50 [13]: 36.9 µM (active)

CCOc1ccc(C(=O)Nc2nc3ccccc3[nH]2)cc1OCC
CC50 [14]: > 40 µM (active)
CC50 [15]: 18.8 µM (active)
IC50 [16]: 12 µM (active)

O=C1C=CC(=O)N1CCNc1ncc(C(F)(F)F)cc1Cl
IC50 [17]: 0.383 µM (active)
EC50 [18]: 10.4 µM (active)
IC50 [19]: 12 µM (active)
EC50 [20]: > 150 µM (not active)
IC50 [21]: 1.53 µM (active)
EC50 [22]: 2.78 µM (active)
EC50 [23]: 3.98 µM (active)
EC50 [24]: > 150 µM (not active)
IC50 [25]: > 80 µM (inactive)
IC50 [26]: > 66.6 µM (inactive)
IC50 [27]: 1.62 µM (active)
AC50 [28]: 0.482 µM (active)
IC50 [29]: 12.3 µM (inactive)
AC50 [30]: 0.947 µM (active)
AC50 [31]: 16 µM (active)
AC50 [32]: 11.9 µM (active)
IC50 [33]: 15.1 µM (inactive)
